The source of these data is US5298509A, “Octahydronaphthoquinolizines, and methods of making and using thereof” (priority 1992, dated 1994).

One data set relates to drug-resistant patients. Conditions: human, in vivo; cited from earlier work.
The subject of data set [1] is sham-feeding rat. The data set is described as follows: Microstructural analysis of licking/ingestive behavior in the sham-feeding rat. The data set is classed as in vivo. The note with it: SKF 5 mg/kg, BMY 4 mg/kg, HAL 0.1 mg/kg, i.p. The source says: Motoric components of the ingestive behavior may be differentiated from the "rewarding", sensory components by the use of microstructural analysis, a computer-controlled device which records the time at which each animal licks, to the nearest fractional millisecond. Analysis of licking and ingestive behavior in bursts is monitored through a fixed time test such that sigma agents may influence ingestive behavior either through the motor output systems or through nigrostriatal dopamine systems. The role for sigma sites in motor output systems include those muscles which are associated with licking, biting, and swallowing.
This consists of the use of a computer-controlled device which records the time at which each animal licks, to the nearest fractional millisecond. This then allows analysis of licking and ingestive behavior in bursts through a 30-minute test.
Using this behavioral assay system, with peripheral administration of the various selective drugs, rats (N=6) received 20% sucrose during a 30-min test, such that there was no effect of the sigma agents (+)-SKF 10,047 (5 mg/kg, i.p.; SKF) or BMY 14802 (4 mg/kg, i.p.; BMY) depending upon the volume of the sucrose solution which was ingested. […] These changes are attributed to a shift in the mean of the distribution histogram of interlick intervals. […] The shift in interlick interval distribution is expected to arise from occupancy of hindbrain sigma sites, possibly in the reticular formation, which are involved in definition of the lick rate in the rat.

The subject of the next data set is sigma receptor. The note with it: cited from earlier work.
In data set [2] the test system is sham-feeding rat. Put plainly: Sucrose ingestion (sham intake) in the sham-feeding rat. The format is in vivo. Conditions: 20% sucrose, 30-min test, N=6. From the text: As a non-limiting example, distinguishing between sigma receptor modulation and dopamine modulation may be accomplished using a D2 distinguishing assay, such as a behavioral assay system which discriminates the effects of dopamine D2 antagonists from sigma modulators or agents. A non-limiting example of a D2 /sigma distinguishing assay system involves quantification of ingestion of sucrose in a sham-feeding rat, where dopamine plays a critical role in the mediation of this behavior. See Schneider, L. H. et al. Eur. J. Pharmacol. 186:61-70 (1990) which is entirely incorporated herein by reference. […] The principal factor which compels the animal to maintain ingestion is the sweet taste of the sucrose solution; the involvement of the ascending mesolimbic dopamine system in this effect appears to be manifested as a modulation of the hedonic potency of the orosensory event (sweet taste). […] Neurosci. Abstr. 16:1028 (1990) which references are incorporated entirely herein by reference.
Differentiation of sigma and dopamine activities are provided by a behavioral assay system which effectively discriminates the effects of dopamine D-2 antagonists from sigma agents. The assay system involves quantification of ingestion of sucrose in the sham-feeding rat.

The next data set has as its system dopamine D2 receptor. The note with it: cited from earlier work.

“Also recorded” adds a separate entry of the source. Where two headings read alike, the source gives them in different places.

As for `CN1CCN(C2=Nc3cc(Cl)ccc3Nc3ccccc32)CC1` [clozapine], the “agranulocytosis / side effects (in words)” value with drug-resistant patients is “irreversible, potentially fatal agranulocytosis in a minority of patients; also recorded: less motor side effects; also recorded: severe and fatal agranulocytosis”.

As for `O=C(CCCN1CCC(O)(c2ccc(Cl)cc2)CC1)c1ccc(F)cc1` [haloperidol], in the data set with sham-feeding rat [1], the “mean lick cluster size (in words)” value is listed as “not SKF or HAL”. Moreover, in the data set with sham-feeding rat [1] (range 0-250 msec), the “interlick intervals (in words)” value is “not SKF or HAL”. The “affinity for sigma receptors (in words)” value was “high affinity” with sigma receptor, “labeled with high affinity” in the data set on sigma receptor (listed as (^3 H)-haloperidol) and “very high affinity” with sigma receptor (listed as Haloperidol). In the data set with sham-feeding rat [2] ((+)-SKF 10,047 5 mg/kg i.p., BMY 14802 4 mg/kg i.p., haloperidol 0.1 mg/kg i.p.), the “effect on volume of sucrose solution ingested (in words)” value is listed as “highly significant reduction”. Also, the “sham intake of the sucrose solution” value in the data set with sham-feeding rat [2] (haloperidol 0.1 mg/kg, i.p., vs 33.7±2.7 ml, p<0.001) was determined as 15 ± 2.7 mL. The “activity at dopamine D2 receptor (in words)” value with dopamine D2 receptor was “high affinity”.
